Measured values as given in ChEMBL document CHEMBL1201862, “PubChem BioAssay data set” (2004).
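Tested at 5 concentrations; 48 h exposure; 96-well plates; endpoints linearly interpolated, else capped at highest concentration. Abbreviation: GI50, concentration required for 50% inhibition of growth.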 Active and inactive are the calls of the source. Cut-off read from the data, not from the text of the source: active = GI50 up to about 1.1 µM and inactive = higher.

Columns and labels:
Test in all cases: NCI-60 cell line screen, 48 h
K562 = test system: K562
TK-10 = test system: TK-10
SW-620 = test system: SW-620
UACC-62 = test system: UACC-62
SK-OV-3 = test system: SK-OV-3
T47D = test system: T47D
SR = test system: SR
U-251 = test system: U-251
HT-29 = test system: HT-29
CAKI-1 = test system: CAKI-1
SF-539 = test system: SF-539
SF-268 = test system: SF-268
SNB-19 = test system: SNB-19
NCI-H460 = test system: NCI-H460
MCF7 = test system: MCF7
HL-60 = test system: HL-60
MDA-MB-435 = test system: MDA-MB-435
SK-MEL-28 = test system: SK-MEL-28
KM12 = test system: KM12
RXF 393 = test system: RXF 393
UO-31 = test system: UO-31
HCC 2998 = test system: HCC 2998
HOP-92 = test system: HOP-92
786-0 = test system: 786-0
NCI-H23 = test system: NCI-H23
HCT-15 = test system: HCT-15
EKVX = test system: EKVX
MDA-MB-231 = test system: MDA-MB-231
DU-145 = test system: DU-145
BT-549 = test system: BT-549
OVCAR-5 = test system: OVCAR-5
SK-MEL-5 = test system: SK-MEL-5
NCI/ADR-RES = test system: NCI/ADR-RES
SF-295 = test system: SF-295
Malme-3M = test system: Malme-3M
RPMI-8226 = test system: RPMI-8226
SNB-75 = test system: SNB-75
ACHN = test system: ACHN
NCI-H522 = test system: NCI-H522
A549 = test system: A549
HCT-116 = test system: HCT-116
M14 = test system: M14
NCI-H226 = test system: NCI-H226
LOX IMVI = test system: LOX IMVI
A498 = test system: A498
COLO 205 = test system: COLO 205
MOLT-4 = test system: MOLT-4
OVCAR-3 = test system: OVCAR-3
PC-3 = test system: PC-3
HOP-62 = test system: HOP-62
OVCAR-4 = test system: OVCAR-4
SK-MEL-2 = test system: SK-MEL-2
CCRF-CEM = test system: CCRF-CEM
SN12C = test system: SN12C
MDA-N = test system: MDA-N
OVCAR-8 = test system: OVCAR-8
UACC-257 = test system: UACC-257

SMILES: COc1ccc(C23OCC(Cc4cc(OC)c(OC)cc42)C3COC(C)=O)cc1OC (configuration not stated)
- GI50 (K562): > 100 µM (inactive)
- GI50 (TK-10): > 100 µM (inactive)
- GI50 (SW-620): > 100 µM (inactive)
- GI50 (UACC-62): > 100 µM (inactive)
- GI50 (SK-OV-3): > 100 µM (inactive)
- GI50 (T47D): > 100 µM (inactive)
- GI50 (SR): 27.4 µM (inactive)
- GI50 (U-251): > 100 µM (inactive)
- GI50 (HT-29): > 100 µM (inactive)
- GI50 (CAKI-1): > 100 µM (inactive)
- GI50 (SF-539): > 100 µM (inactive)
- GI50 (SF-268): > 100 µM (inactive)
- GI50 (SNB-19): > 100 µM (inactive)
- GI50 (NCI-H460): > 100 µM (inactive)
- GI50 (MCF7): > 100 µM (inactive)
- GI50 (HL-60): > 100 µM (inactive)
- GI50 (MDA-MB-435): > 100 µM (inactive)
- GI50 (SK-MEL-28): > 100 µM (inactive)
- GI50 (KM12): > 100 µM (inactive)
- GI50 (RXF 393): > 100 µM (inactive)
- GI50 (UO-31): > 100 µM (inactive)
- GI50 (HCC 2998): > 100 µM (inactive)
- GI50 (HOP-92): > 100 µM (inactive)
- GI50 (786-0): > 100 µM (inactive)
- GI50 (NCI-H23): 56.1 µM (inactive)
- GI50 (HCT-15): > 100 µM
- GI50 (EKVX): > 100 µM (inactive)
- GI50 (MDA-MB-231): > 100 µM (inactive)
- GI50 (DU-145): > 100 µM (inactive)
- GI50 (BT-549): > 100 µM (inactive)
- GI50 (OVCAR-5): > 100 µM (inactive)
- GI50 (SK-MEL-5): 20.7 µM (inactive)
- GI50 (NCI/ADR-RES): 25.5 µM (inactive)
- GI50 (SF-295): > 100 µM (inactive)
- GI50 (Malme-3M): > 100 µM (inactive)
- GI50 (RPMI-8226): > 100 µM (inactive)
- GI50 (SNB-75): > 100 µM (inactive)
- GI50 (ACHN): > 100 µM (inactive)
- GI50 (NCI-H522): > 100 µM (inactive)
- GI50 (A549): > 100 µM (inactive)
- GI50 (HCT-116): > 100 µM (inactive)
- GI50 (M14): > 100 µM (inactive)
- GI50 (NCI-H226): 5.66 µM (inactive)
- GI50 (LOX IMVI): > 100 µM (inactive)
- GI50 (A498): > 100 µM (inactive)
- GI50 (COLO 205): > 100 µM (inactive)
- GI50 (MOLT-4): > 100 µM (inactive)
- GI50 (OVCAR-3): > 100 µM (inactive)
- GI50 (PC-3): > 100 µM (inactive)
- GI50 (HOP-62): > 100 µM (inactive)
- GI50 (OVCAR-4): > 100 µM (inactive)
- GI50 (SK-MEL-2): > 100 µM (inactive)

SMILES: CC(C)(/C=N\O)NO
- GI50 (K562): > 10 µM (inactive)
- GI50 (TK-10): > 10 µM (inactive)
- GI50 (SW-620): > 10 µM (inactive)
- GI50 (T47D): > 10 µM (inactive)
- GI50 (SR): > 10 µM (inactive)
- GI50 (U-251): > 10 µM (inactive)
- GI50 (HT-29): > 10 µM (inactive)
- GI50 (CAKI-1): > 10 µM (inactive)
- GI50 (SF-268): > 10 µM (inactive)
- GI50 (SNB-19): > 10 µM (inactive)
- GI50 (NCI-H460): > 10 µM (inactive)
- GI50 (MCF7): > 10 µM (inactive)
- GI50 (HL-60): > 10 µM (inactive)
- GI50 (MDA-MB-435): > 10 µM (inactive)
- GI50 (CCRF-CEM): > 10 µM (inactive)
- GI50 (KM12): > 10 µM (inactive)
- GI50 (RXF 393): > 10 µM (inactive)
- GI50 (UO-31): > 10 µM (inactive)
- GI50 (HCC 2998): > 10 µM (inactive)
- GI50 (HOP-92): > 10 µM (inactive)
- GI50 (SN12C): > 10 µM (inactive)
- GI50 (MDA-N): > 10 µM (inactive)
- GI50 (786-0): > 10 µM (inactive)
- GI50 (NCI-H23): > 10 µM (inactive)
- GI50 (HCT-15): > 10 µM
- GI50 (EKVX): > 10 µM (inactive)
- GI50 (MDA-MB-231): > 10 µM (inactive)
- GI50 (DU-145): > 10 µM (inactive)
- GI50 (BT-549): > 10 µM (inactive)
- GI50 (OVCAR-5): > 10 µM (inactive)
- GI50 (NCI/ADR-RES): > 10 µM (inactive)
- GI50 (SF-295): > 10 µM (inactive)
- GI50 (Malme-3M): > 10 µM (inactive)
- GI50 (OVCAR-8): > 10 µM (inactive)
- GI50 (RPMI-8226): > 10 µM (inactive)
- GI50 (ACHN): > 10 µM (inactive)
- GI50 (NCI-H522): > 10 µM (inactive)
- GI50 (A549): > 10 µM (inactive)
- GI50 (HCT-116): > 10 µM (inactive)
- GI50 (M14): > 10 µM (inactive)
- GI50 (NCI-H226): > 10 µM (inactive)
- GI50 (UACC-257): > 10 µM (inactive)
- GI50 (LOX IMVI): > 10 µM (inactive)
- GI50 (COLO 205): > 10 µM (inactive)
- GI50 (MOLT-4): > 10 µM (inactive)
- GI50 (OVCAR-3): > 10 µM (inactive)
- GI50 (PC-3): > 10 µM (inactive)
- GI50 (HOP-62): > 10 µM (inactive)
- GI50 (OVCAR-4): > 10 µM (inactive)
- GI50 (SK-MEL-2): > 10 µM (inactive)
